Tested on: NOMO1
Assay: cell viability relative to DMSO control; higher = less cytotoxic
Conditions: 48 h
Summary of the method: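 Three leukemia lines were tested: NOMO1 and SEM at 500 cells/well and P12-Ichikawa at 1000 cells/well. Each was adapted for at least four passages in each medium and seeded in 5 μl in 1536-well plates, and library compounds in DMSO were pin-dosed from 47 μM to 0.79 nM in 11 threefold steps. After 48 h at 37°C, CellTiter-Glo One luminescence was read. Viability is a percentage relative to DMSO wells on each plate, with cell-free wells as background.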

[1] = HPLM + 10% dialyzed FBS, 0.000781 µM
[2] = HPLM + 10% dialyzed FBS, 0.00234 µM
[3] = HPLM + 10% dialyzed FBS, 0.00702 µM
[4] = HPLM + 10% dialyzed FBS, 0.0211 µM
[5] = HPLM + 10% dialyzed FBS, 0.0632 µM
[6] = HPLM + 10% dialyzed FBS, 0.19 µM
[7] = HPLM + 10% dialyzed FBS, 0.569 µM
[8] = HPLM + 10% dialyzed FBS, 1.71 µM
[9] = HPLM + 10% dialyzed FBS, 5.12 µM
[10] = HPLM + 10% dialyzed FBS, 15.4 µM
[11] = HPLM + 10% dialyzed FBS, 46.1 µM
[12] = RPMI 5 mM glucose + 10% FBS, 0.000781 µM
[13] = RPMI 5 mM glucose + 10% FBS, 0.00234 µM
[14] = RPMI 5 mM glucose + 10% FBS, 0.00702 µM
[15] = RPMI 5 mM glucose + 10% FBS, 0.0211 µM
[16] = RPMI 5 mM glucose + 10% FBS, 0.0632 µM
[17] = RPMI 5 mM glucose + 10% FBS, 0.19 µM
[18] = RPMI 5 mM glucose + 10% FBS, 0.569 µM
[19] = RPMI 5 mM glucose + 10% FBS, 1.71 µM
[20] = RPMI 5 mM glucose + 10% FBS, 5.12 µM
[21] = RPMI 5 mM glucose + 10% FBS, 15.4 µM
[22] = RPMI 5 mM glucose + 10% FBS, 46.1 µM
[23] = RPMI 5 mM glucose + 10% dialyzed FBS, 0.000781 µM
[24] = RPMI 5 mM glucose + 10% dialyzed FBS, 0.00234 µM
[25] = RPMI 5 mM glucose + 10% dialyzed FBS, 0.00702 µM
[26] = RPMI 5 mM glucose + 10% dialyzed FBS, 0.0211 µM
[27] = RPMI 5 mM glucose + 10% dialyzed FBS, 0.0632 µM
[28] = RPMI 5 mM glucose + 10% dialyzed FBS, 0.19 µM
[29] = RPMI 5 mM glucose + 10% dialyzed FBS, 0.569 µM
[30] = RPMI 5 mM glucose + 10% dialyzed FBS, 1.71 µM
[31] = RPMI 5 mM glucose + 10% dialyzed FBS, 5.12 µM
[32] = RPMI 5 mM glucose + 10% dialyzed FBS, 15.4 µM
[33] = RPMI 5 mM glucose + 10% dialyzed FBS, 46.1 µM

SMILES | cell viability [1] [%] | cell viability [2] [%] | cell viability [3] [%] | cell viability [4] [%] | cell viability [5] [%] | cell viability [6] [%] | cell viability [7] [%] | cell viability [8] [%] | cell viability [9] [%] | cell viability [10] [%] | cell viability [11] [%] | cell viability [12] [%] | cell viability [13] [%] | cell viability [14] [%] | cell viability [15] [%] | cell viability [16] [%] | cell viability [17] [%] | cell viability [18] [%] | cell viability [19] [%] | cell viability [20] [%] | cell viability [21] [%] | cell viability [22] [%] | cell viability [23] [%] | cell viability [24] [%] | cell viability [25] [%] | cell viability [26] [%] | cell viability [27] [%] | cell viability [28] [%] | cell viability [29] [%] | cell viability [30] [%] | cell viability [31] [%] | cell viability [32] [%] | cell viability [33] [%]
CC1(C)C(=O)N(CCN2CCC(C(=O)c3ccc(F)cc3)CC2)c2ccccc21 | 117 | 115 | 120 | 141 | 151 | 138 | 162 | 128 | 119 | 129 | 88.7 | 120 | 124 | 120 | 131 | 141 | 142 | 128 | 133 | 117 | 122 | 82.1 | 116 | 120 | 134 | 136 | 134 | 134 | 148 | 132 | 120 | 113 | 84.1
OC[C@H]1O[C@H]([C@@H](F)[C@@H]1O)N2\C=C/C(=O)NC2=O | 99.1 | 106 | 106 | 97.2 | 116 | 108 | 108 | 107 | 109 | 97.9 | 90.2 | 85.9 | 40.6 | 97 | 92.9 | 99.7 | 104 | 98.2 | 100 | 84.8 | 94.3 | 82.8 | 105 | 74.5 | 97 | 102 | 102 | 99.4 | 105 | 99.5 | 84 | 104 | 95.2
CCNC(=O)c1cc2c(-c3cc(OCCN4CCCC4)c(Cl)cc3Cl)nc(N)nc2s1 | 105 | 121 | 92.7 | 107 | 102 | 104 | 105 | 86.6 | 47.3 | 17.2 | 15.8 | 84.7 | 93.6 | 95.6 | 85.6 | 95.8 | 109 | 88.2 | 88.9 | 32.3 | 13.2 | 10.1 | 107 | 103 | 115 | 111 | 82.8 | 107 | 93.2 | 76.8 | 51.2 | 18.3 | 12.5
O=C(NC[C@H](O)CN1CCc2ccccc2C1)c1cc(NC2COC2)ncn1 | 93.5 | 117 | 173 | 29.5 | 64.5 | 99.2 | 101 | 72.7 | 70.7 | 56.1 | 38.6 | 92.9 | 80.4 | 88.2 | 99.3 | 83 | 89.9 | 94.4 | 92.6 | 84.3 | 75.1 | 74.2 | 83.5 | 92.8 | 93.5 | 101 | 84.7 | 91.8 | 68.4 | 66.4 | 81.4 | 67.3 | 63.3
C=CC1=C(C(=O)O)N2C(=O)[C@@H](NC(=O)/C(=N\O)c3csc(N)n3)[C@H]2SC1 | 82.9 | 110 | 119 | 102 | 123 | 109 | 129 | 129 | 110 | 113 | 118 | 104 | 119 | 124 | 118 | 117 | 127 | 116 | 120 | 125 | 134 | 138 | 98.2 | 105 | 115 | 118 | 119 | 125 | 140 | 124 | 121 | 109 | 107
COc1cc2c(Nc3ccc(Cl)c(Cl)c3F)ncnc2cc1OC[C@@H]1C[C@@H]2CN(C)C[C@@H]2C1 | 109 | 113 | 116 | 119 | 115 | 88.4 | 81.2 | 73 | 50.7 | 53.4 | 20.7 | 114 | 121 | 131 | 130 | 127 | 126 | 119 | 117 | 87.9 | 101 | 22.5 | 101 | 124 | 125 | 118 | 124 | 123 | 112 | 98.3 | 79.1 | 83.9 | 24.3
CCN(CC)CCCCNc1nc2cc(Cl)c(Cl)cc2nc1-c1ccc(-c2cccs2)s1 | 101 | 124 | 123 | 128 | 111 | 137 | 137 | 121 | 138 | 98.4 | 3.87 | 97 | 103 | 111 | 115 | 123 | 119 | 123 | 102 | 117 | 113 | 5.9 | 98.3 | 112 | 108 | 112 | 110 | 119 | 114 | 108 | 112 | 108 | 5.42
Cn1c(Nc2ccc(C(F)(F)F)cc2)nc2cc(Oc3ccnc(-c4nc(C(F)(F)F)c[nH]4)c3)ccc21 | 125 | 125 | 120 | 125 | 144 | 145 | 140 | 129 | 114 | 100 | 45.7 | 124 | 123 | 118 | 134 | 130 | 141 | 124 | 149 | 122 | 119 | 29.5 | 121 | 129 | 121 | 127 | 140 | 130 | 125 | 125 | 104 | 106 | 26.8
CN(C/C=C/C#CC(C)(C)C)Cc1cccc2ccccc12 | 93.8 | 125 | 104 | 94.1 | 108 | 104 | 108 | 96.4 | 98 | 92.4 | 106 | 86.4 | 96.7 | 86.2 | 85.1 | 93.2 | 91.8 | 103 | 87.2 | 90 | 94.5 | 100 | 87.9 | 82.4 | 95.8 | 91.6 | 107 | 90.1 | 93.9 | 91.6 | 90.2 | 98.8 | 109
OC[C@H](Cc1ccccc1)Nc1nc(Oc2ccc3c(c2)CCC3)nc2c1ncn2Cc1ccc(-c2ccccc2)cc1 | 95.3 | 100 | 83.5 | 123 | 86.9 | 98.5 | 108 | 88.6 | 99.5 | 87.2 | 96.7 | 79.7 | 83.2 | 84.8 | 96.4 | 102 | 89.7 | 90.3 | 92.2 | 98.8 | 90.5 | 90.2 | 90.7 | 84 | 102 | 95.6 | 98.5 | 101 | 116 | 96.7 | 100 | 114 | 96.3
C[C@@]12O[C@@H](C[C@]1(O)CO)n1c3ccccc3c3c4c(c5c6ccccc6n2c5c31)CNC4=O | – | – | – | – | – | – | – | – | – | – | – | 106 | 128 | 102 | 121 | 119 | 96.3 | 77.3 | 42.3 | 39.9 | 24.3 | 5.7 | 103 | 118 | 122 | 138 | 110 | 99.6 | 76.4 | 50 | 31.8 | 27.4 | 4.47
CCC1(c2ccc(N)cc2)CCC(=O)NC1=O (stereo not drawn) | 115 | 107 | 125 | 124 | 122 | 119 | 115 | 110 | 116 | 93.9 | 97.6 | 106 | 107 | 116 | 116 | 102 | 117 | 103 | 104 | 123 | 110 | 99.7 | 114 | 111 | 116 | 117 | 118 | 104 | 107 | 123 | 102 | 111 | 111
C[S+](=O)([O-])N(Cc1ccco1)CC(O)Cn1c2ccccc2c2ccccc21 (stereo not drawn) | 95.3 | 99 | 102 | 105 | 86.5 | 91.2 | 93.9 | 82.8 | 83.6 | 73.6 | 35.2 | 88.4 | 91.6 | 91.4 | 92.2 | 94.3 | 94 | 90 | 80.7 | 79.6 | 86.3 | 52.8 | 97.9 | 89.2 | 93.3 | 90.3 | 93.3 | 90.1 | 97.8 | 85.1 | 80.8 | 77.9 | 50.8

— the supplement of paper PMC11451515
